From patent publication US20260285850A1, “SUBSTITUTED OXAZOLIDINONES AND IMIDAZOLINONES AS HERBICIDES” (FMC CORPORATION, priority 2023, published 2026)

How the values were obtained:
Format in all cases: in vivo
[1] = test system: ryegrass, Italian (italian ryegrass, Lolium multiflorum); assay: Test A postemergence application, visual injury rating 0-100; conditions: 10 days
Summary of the method: (§1)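 Directed preemergence spray onto seeded soil or postemergence spray onto 2-10 cm plants (loam plus sand); compound carried in surfactant-containing non-phytotoxic solvent. Injury rated by eye after 10 d greenhouse growth; 0 = no effect, 100 = complete control.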

[2] = test system: ragweed (common ragweed, Ambrosia artemisiifolia); assay: as above; conditions: 10 days
Summary of the method: as §1

[3] = test system: palmer (palmer amaranth, palmer pigweed, Amaranthus palmeri); assay: as above; conditions: 10 days
Summary of the method: as §1

[4] = test system: oat, wild (wild oat, Avena fatua); assay: as above; conditions: 10 days
Summary of the method: as §1

[5] = test system: blackgrass (Alopecurus myosuroides); assay: as above; conditions: 10 days
Summary of the method: as §1

[6] = test system: green foxtail (Setaria viridis); assay: as above; conditions: 10 days
Summary of the method: as §1

[7] = test system: galium (catchweed bedstraw, Galium aparine); assay: as above; conditions: 10 days
Summary of the method: as §1

[8] = test system: corn (Zea mays); assay: as above; conditions: 10 days
Summary of the method: as §1

[9] = test system: soybean (Glycine max); assay: as above; conditions: 10 days
Summary of the method: as §1

[10] = test system: barnyardgrass (Echinochloa crus-galli); assay: as above; conditions: 10 days
Summary of the method: as §1

[11] = test system: wheat (Triticum aestivum); assay: as above; conditions: 10 days
Summary of the method: as §1

[12] = test system: horseweed (Erigeron canadensis); assay: as above; conditions: 10 days
Summary of the method: as §1

[13] = test system: kochia (Bassia scoparia); assay: as above; conditions: 10 days
Summary of the method: as §1

[14] = test system: barnyardgrass (Echinochloa crusgalli); assay: Test B flooded paddy test, visual plant response rating 0-100; conditions: 250 g ai/ha, Flood, applied to paddy water, evaluated after 13 days
Summary of the method: (§2)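 Plants were grown to the 2-leaf stage, then pots were flooded to 3 cm above the soil and test compounds were applied directly into the paddy water. Water depth was held there throughout; after 13 days in a greenhouse, injury was scored visually against untreated controls.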

[15] = test system: sedge, umbrella (small-flower umbrella sedge, Cyperus difformis); assay: as above; conditions: 250 g ai/ha, Flood, applied to paddy water, evaluated after 13 days
Summary of the method: as §2

[16] = test system: ducksalad (Heteranthera limosa); assay: as above; conditions: 250 g ai/ha, Flood, applied to paddy water, evaluated after 13 days
Summary of the method: as §2

[17] = test system: rice (Oryza sativa); assay: as above; conditions: 250 g ai/ha, Flood, applied to paddy water, evaluated after 13 days
Summary of the method: as §2

[18] = test system: ryegrass, Italian (italian ryegrass, Lolium multiflorum); assay: Test A preemergence soil spray, visual injury rating 0-100; conditions: 10 days, 0 = no effect, 100 = complete control
Summary of the method: as §1

[19] = test system: ragweed (common ragweed, Ambrosia artemisiifolia); assay: as above; conditions: 10 days, 0 = no effect, 100 = complete control
Summary of the method: as §1

[20] = test system: palmer (palmer amaranth, palmer pigweed, Amaranthus palmeri); assay: as above; conditions: 10 days, 0 = no effect, 100 = complete control
Summary of the method: as §1

[21] = test system: oat, wild (wild oat, Avena fatua); assay: as above; conditions: 10 days, 0 = no effect, 100 = complete control
Summary of the method: as §1

[22] = test system: blackgrass (Alopecurus myosuroides); assay: as above; conditions: 10 days, 0 = no effect, 100 = complete control
Summary of the method: as §1

[23] = test system: green foxtail (Setaria viridis); assay: as above; conditions: 10 days, 0 = no effect, 100 = complete control
Summary of the method: as §1

[24] = test system: corn (Zea mays); assay: as above; conditions: 10 days, 0 = no effect, 100 = complete control
Summary of the method: as §1

[25] = test system: soybean (Glycine max); assay: as above; conditions: 10 days, 0 = no effect, 100 = complete control
Summary of the method: as §1

[26] = test system: barnyardgrass (Echinochloa crus-galli); assay: as above; conditions: 10 days, 0 = no effect, 100 = complete control
Summary of the method: as §1

[27] = test system: wheat (Triticum aestivum); assay: as above; conditions: 10 days, 0 = no effect, 100 = complete control
Summary of the method: as §1

[28] = test system: kochia (Bassia scoparia); assay: as above; conditions: 10 days, 0 = no effect, 100 = complete control
Summary of the method: as §1

[29] = 31 g ai/ha, postemergence, 0 = no effect, 100 = complete control
[30] = Postemergence, 125 g ai/ha, 0 is no effect, 100 is complete control

`COC(=O)C1=CCC(NC(=O)C2(C)CN(c3cc(F)cc(F)c3)C(=O)O2)C1` (single isomer, unassigned) [Compound 20] was tested, and the “Ryegrass, Italian plant response rating (0-100)” value [1, 29] was 0, the “Ryegrass, Italian plant response rating (0 to 100 scale)” value [1, 30] was 80 and the “Ragweed plant response rating (0-100)” value [2, 29] was 0. The “Ragweed plant response rating (0 to 100 scale)” value [2, 30] was 30, the “Amaranth, Palmer plant response rating (0-100)” value [3, 29] was 0 and the “Amaranth, Palmer / Pigweed, Palmer plant response rating (0 to 100 scale)” value [3, 30] was 30. For the same compound, the “Oat, Wild plant response rating (0-100)” value [4, 29] was 20, the “Oat, Wild plant response rating (0 to 100 scale)” value [4, 30] was 60 and the “Blackgrass plant response rating (0-100)” value [5, 29] was 0. The “Blackgrass plant response rating (0 to 100 scale)” value [5, 30] was 60, the “Foxtail, Green plant response rating (0-100)” value [6, 29] was 20 and the “Foxtail, Green plant response rating (0 to 100 scale)” value [6, 30] was 80. The “Galium plant response rating (0-100)” value [7, 29] was 20, the “Galium plant response rating (0 to 100 scale)” value [7, 30] was 80 and the “Corn plant response rating (0-100)” value [8, 29] was 40. For the same compound, the “Corn plant response rating (0 to 100 scale)” value [8, 30] was 100, the “Soybean plant response rating (0-100)” value [9, 29] was 50 and the “Soybean plant response rating (0 to 100 scale)” value [9, 30] was 90. The “Barnyardgrass plant response rating (0-100)” value [10, 29] was 0, the “Barnyardgrass plant response rating (0 to 100 scale)” value [10, 30] was 90 and the “Wheat plant response rating (0-100)” value [11, 29] was 0. For the same compound, the “Wheat plant response rating (0 to 100 scale)” value [11, 30] was 80, the “Horseweed plant response rating (0-100)” value [12, 29] was 0 and the “Horseweed plant response rating (0 to 100 scale)” value [12, 30] was 0. For the same compound, the “Kochia plant response rating (0-100)” value [13, 29] was 0, the “Kochia plant response rating (0 to 100 scale)” value [13, 30] was 50 and the “Plant response rating, Barnyardgrass (0 to 100 scale, 0 is no effect and 100 is complete control)” value [14] was 0. The “Plant response rating, Sedge, Umbrella (0 to 100 scale, 0 is no effect and 100 is complete control)” value [15] was 0, the “Plant response rating, Ducksalad (0 to 100 scale, 0 is no effect and 100 is complete control)” value [16] was 0 and the “Plant response rating, Rice (0 to 100 scale, 0 is no effect and 100 is complete control)” value [17] was 0. For the same compound, the “Ryegrass, Italian plant response rating (0-100)” value ([18]; 31 g ai/ha) was 0, the “Ryegrass, Italian plant response rating (0 to 100 scale)” value ([18]; 125 g ai/ha) was 20 and the “Ragweed plant response rating (0-100)” value ([19]; 31 g ai/ha) was 30. For the same compound, the “Ragweed plant response rating (0 to 100 scale)” value ([19]; 125 g ai/ha) was 0, the “Amaranth, Palmer plant response rating (0-100)” value ([20]; 31 g ai/ha) was 0 and the “Amaranth, Palmer plant response rating (0 to 100 scale)” value ([20]; 125 g ai/ha) was 0. The “Oat, Wild plant response rating (0-100)” value ([21]; 31 g ai/ha) was 0, the “Oat, Wild plant response rating (0 to 100 scale)” value ([21]; 125 g ai/ha) was 0 and the “Blackgrass plant response rating (0-100)” value ([22]; 31 g ai/ha) was 0. The “Blackgrass plant response rating (0 to 100 scale)” value ([22]; 125 g ai/ha) was 0, the “Foxtail, Green plant response rating (0-100)” value ([23]; 31 g ai/ha) was 0 and the “Foxtail, Green plant response rating (0 to 100 scale)” value ([23]; 125 g ai/ha) was 0. The “Corn plant response rating (0-100)” value ([24]; 31 g ai/ha) was 0, the “Corn plant response rating (0 to 100 scale)” value ([24]; 125 g ai/ha) was 0 and the “Soybean plant response rating (0-100)” value ([25]; 31 g ai/ha) was 20. The “Soybean plant response rating (0 to 100 scale)” value ([25]; 125 g ai/ha) was 60, the “Barnyardgrass plant response rating (0-100)” value ([26]; 31 g ai/ha) was 0 and the “Barnyardgrass plant response rating (0 to 100 scale)” value ([26]; 125 g ai/ha) was 0. The “Wheat plant response rating (0-100)” value ([27]; 31 g ai/ha) was 0, the “Wheat plant response rating (0 to 100 scale)” value ([27]; 125 g ai/ha) was 20 and the “Kochia plant response rating (0-100)” value ([28]; 31 g ai/ha) was 0. The “Kochia plant response rating (0 to 100 scale)” value ([28]; 125 g ai/ha) was 0.
